According to PubChem BioAssay (NCI):
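Grown in 96-well plates, cells were treated for 48 hours with each compound at five concentrations. Insufficient inhibition: endpoint recorded as highest concentration tested. GI50: concentration for 50% inhibition of growth. Definition used: TGI = concentration required for complete inhibition of growth.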

Legend:
Experiment in all cases: growth of human tumour cells (NCI), 48 h
[1] = test system: SW-620 colon
[2] = test system: MOLT-4 leukemia
[3] = test system: ACHN renal
[4] = test system: RPMI-8226 leukemia
[5] = test system: UO-31 renal
[6] = test system: DU-145 prostate
[7] = test system: HCC-2998 colon
[8] = test system: CCRF-CEM leukemia
[9] = test system: LOX IMVI melanoma
[10] = test system: HS 578T breast

Structure (SMILES) | GI50 [1] [µM] | TGI [1] [µM] | GI50 [2] [µM] | TGI [2] [µM] | GI50 [3] [µM] | TGI [3] [µM] | GI50 [4] [µM] | TGI [4] [µM] | GI50 [5] [µM] | TGI [5] [µM] | GI50 [6] [µM] | TGI [6] [µM] | GI50 [7] [µM] | TGI [7] [µM] | GI50 [8] [µM] | TGI [8] [µM] | GI50 [9] [µM] | TGI [9] [µM] | GI50 [10] [µM] | TGI [10] [µM]
COc1cc(-c2nc(Nc3nc4ccccc4[nH]3)nc(N)c2C#N)cc(OC)c1OC | 1.85 | 26.1 | 18.2 | > 100 | 14.5 | > 100 | 12.5 | > 100 | 85.7 | > 100 | 10.9 | 35.6 | > 40.8 | > 100 | 6.17 | > 100 | 6.37 | 41.4 | 0.33 | > 100
CCCN(CCC)C(=O)C1=Cc2ccc(-c3ccc(C(=O)N4CCCC4)cc3)cc2N=C(N)C1 | 7.1 | 31.8 | 10.5 | 64.3 | 8.13 | 50.9 | 7.66 | 36.4 | 9.15 | 32.8 | 20.6 | 91.1 | 14.4 | 35.8 | 10.6 | 74.4 | 9.48 | 24.2 | 16 | 59
COc1cccc(C2c3cc4c(cc3OC(C)(O)C2C)OCO4)c1O (stereo not given) | – | > 100 | – | > 66.2 | – | 79.1 | – | > 100 | – | 52.6 | – | 53.9 | – | 24.1 | – | 33.8 | – | 50.4 | – | 9.94
C=C1C(=O)O[C@@H]2C[C@@]3(C)CCC[C@H](C)C3=C[C@H]12 | – | 12.3 | – | 4.8 | – | 21.6 | – | 6.21 | – | 17.1 | – | 24.3 | – | 29.1 | – | 9.94 | – | 22.9 | – | 19.1
CC1=CC(=NC(=O)CBr)C=C/C1=N\S(=O)(=O)c1ccccc1 | 3.03 | 10.1 | 2.75 | 9.65 | 2.77 | 8.98 | 2.9 | 9.35 | 2.77 | 12.6 | 3.63 | 12.2 | 16.5 | 31.3 | 2.45 | 8.16 | 1.68 | 3.24 | 5.03 | 35.2
COc1ccc(CCN2C(=O)C=CC2=O)cc1OC | – | 5.65 | – | 5.49 | – | 3.17 | – | 3.18 | – | 3.05 | – | 31 | – | 34.8 | – | 2.93 | – | 36.9 | – | 99.6
CC(C)=CCC[C@H](C)[C@@H]1CC[C@]2(C)C3CC[C@]4(OC4(C)C)C(CCCO)[C@]3(C)CC[C@@]12C (stereo not given in full) | 28 | 64.8 | 18.2 | 44.6 | 13.7 | 32.4 | 33.6 | > 100 | 33.5 | > 100 | 32.9 | > 100 | 7.75 | 22.5 | 25.2 | 65.9 | 0.18 | 16.5 | 24.4 | 58.5
